Test results from ChEMBL document CHEMBL1201862, “PubChem BioAssay data set” (2004).
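Cultured in 96-well plates, cells were exposed to test compound for 48 hours across five concentrations. GI50: concentration for 50% inhibition of growth.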 Active and inactive are the calls of the source. Cut-off read from the data, not from the text of the source: active = GI50 up to about 1.1 µM and inactive = higher.

Key:
Assay in all cases: NCI-60 cell line screen, 48 h
[1] = tested on: HT-29
[2] = tested on: SNB-75
[3] = tested on: Hs-578T
[4] = tested on: MOLT-4
[5] = tested on: UACC-257
[6] = tested on: PC-3
[7] = tested on: HCC 2998
[8] = tested on: NCI-H23
[9] = tested on: HCT-116
[10] = tested on: OVCAR-8
[11] = tested on: ACHN
[12] = tested on: DU-145
[13] = tested on: OVCAR-4
[14] = tested on: SK-MEL-2
[15] = tested on: CAKI-1
[16] = tested on: SW-620
[17] = tested on: MCF7
[18] = tested on: K562
[19] = tested on: HOP-92
[20] = tested on: RPMI-8226
[21] = tested on: 786-0
[22] = tested on: NCI-H226
[23] = tested on: SF-295
[24] = tested on: A549
[25] = tested on: UO-31
[26] = tested on: BT-549
[27] = tested on: M14
[28] = tested on: T47D
[29] = tested on: OVCAR-3
[30] = tested on: HOP-62
[31] = tested on: SF-268
[32] = tested on: SF-539
[33] = tested on: U-251
[34] = tested on: SK-MEL-5
[35] = tested on: TK-10
[36] = tested on: SN12C
[37] = tested on: NCI-H522
[38] = tested on: CCRF-CEM
[39] = tested on: UACC-62
[40] = tested on: SK-OV-3
[41] = tested on: A498
[42] = tested on: SNB-19
[43] = tested on: SK-MEL-28
[44] = tested on: NCI-H460
[45] = tested on: MDA-MB-231
[46] = tested on: MDA-N
[47] = tested on: LOX IMVI
[48] = tested on: EKVX
[49] = tested on: RXF 393
[50] = tested on: KM12
[51] = tested on: COLO 205
[52] = tested on: OVCAR-5
[53] = tested on: MDA-MB-435
[54] = tested on: IGROV-1
[55] = tested on: HCT-15
[56] = tested on: Malme-3M
[57] = tested on: NCI/ADR-RES
[58] = tested on: HL-60

For CC1=C(C(=O)OC(C)(C)C)C(c2ccc([N+](=O)[O-])cc2)C(C(=O)OC(C)(C)C)=C(C)N1, the GI50 [1] was 19.8 µM (inactive), the GI50 [2] was 24.1 µM (inactive) and the GI50 [3] was 20.2 µM (inactive). The GI50 [4] was 16.9 µM (inactive), the GI50 [5] was 18.8 µM (inactive) and the GI50 [6] was 26.7 µM (inactive). For the same compound, the GI50 [7] was 13.2 µM (inactive), the GI50 [8] was 19.6 µM (inactive) and the GI50 [9] was 20.5 µM (inactive). For the same compound, the GI50 [10] was 20.4 µM (inactive), the GI50 [11] was 21.4 µM (inactive) and the GI50 [12] was 26.9 µM (inactive). The GI50 [13] was 20.7 µM (inactive), the GI50 [14] was 28.6 µM (inactive) and the GI50 [15] was 28.9 µM (inactive). For the same compound, the GI50 [16] was 26.9 µM (inactive), the GI50 [17] was 16.6 µM (inactive) and the GI50 [18] was 25.4 µM (inactive). The GI50 [19] was 15.4 µM (inactive), the GI50 [20] was 17 µM (inactive) and the GI50 [21] was 22.1 µM (inactive). The GI50 [22] was 21.3 µM (inactive), the GI50 [23] was 20.2 µM (inactive) and the GI50 [24] was 24.9 µM (inactive). For the same compound, the GI50 [25] was 19.4 µM (inactive), the GI50 [26] was 28 µM (inactive) and the GI50 [27] was 23.9 µM (inactive). The GI50 [28] was 14.7 µM (inactive), the GI50 [29] was 20.1 µM (inactive) and the GI50 [30] was 23.4 µM (inactive). The GI50 [31] was 21.7 µM (inactive), the GI50 [32] was 19.8 µM (inactive) and the GI50 [33] was 21.1 µM (inactive). The GI50 [34] was 18.2 µM (inactive), the GI50 [35] was 20.1 µM (inactive) and the GI50 [36] was 19.8 µM (inactive). The GI50 [37] was 18.5 µM (inactive), the GI50 [38] was 0.187 µM (active) and the GI50 [39] was 16.6 µM (inactive). For the same compound, the GI50 [40] was 32.4 µM (inactive), the GI50 [41] was 22.8 µM (inactive) and the GI50 [42] was 34.4 µM (inactive). The GI50 [43] was 20.1 µM (inactive), the GI50 [44] was 22.2 µM (inactive) and the GI50 [45] was 22.2 µM (inactive). The GI50 [46] was 25.5 µM (inactive), the GI50 [47] was 18.5 µM (inactive) and the GI50 [48] was 18.5 µM (inactive). The GI50 [49] was 19.3 µM (inactive), the GI50 [50] was 20.7 µM (inactive) and the GI50 [51] was 22.6 µM (inactive). The GI50 [52] was 19.1 µM (inactive), the GI50 [53] was 27.9 µM (inactive) and the GI50 [54] was 16.8 µM (inactive). The GI50 [55] was 36.5 µM.

Clc1nc(NCCc2ccccc2)c2ncn(-c3ccccc3)c2n1 was tested, and the GI50 [1] was 16.2 µM (inactive), the GI50 [2] was 18 µM (inactive) and the GI50 [3] was 24.4 µM (inactive). The GI50 [4] was 22 µM (inactive), the GI50 [5] was 15.8 µM (inactive) and the GI50 [6] was 16.1 µM (inactive). The GI50 [7] was 17.1 µM (inactive), the GI50 [8] was 25.6 µM (inactive) and the GI50 [9] was 22 µM (inactive). The GI50 [10] was 28.4 µM (inactive), the GI50 [11] was 29.4 µM (inactive) and the GI50 [12] was 25.2 µM (inactive). The GI50 [13] was 14.1 µM (inactive), the GI50 [14] was 1.83 µM (inactive) and the GI50 [15] was 7.83 µM (inactive). For the same compound, the GI50 [16] was 29.3 µM (inactive), the GI50 [56] was 21.1 µM (inactive) and the GI50 [17] was 24.9 µM (inactive). The GI50 [18] was 25.5 µM (inactive), the GI50 [20] was 18.5 µM (inactive) and the GI50 [21] was 16.9 µM (inactive). The GI50 [22] was 24.1 µM (inactive), the GI50 [23] was 25.3 µM (inactive) and the GI50 [24] was 26.4 µM (inactive). The GI50 [25] was 12.9 µM (inactive), the GI50 [26] was 23.1 µM (inactive) and the GI50 [27] was 21.5 µM (inactive). The GI50 [28] was 23.4 µM (inactive), the GI50 [29] was 25.2 µM (inactive) and the GI50 [57] was 20.6 µM (inactive). For the same compound, the GI50 [30] was 20.6 µM (inactive), the GI50 [31] was 36.5 µM (inactive) and the GI50 [33] was 16.2 µM (inactive). The GI50 [34] was 18.5 µM (inactive), the GI50 [35] was 21.1 µM (inactive) and the GI50 [36] was 27.5 µM (inactive). For the same compound, the GI50 [37] was 16 µM (inactive), the GI50 [39] was 20.8 µM (inactive) and the GI50 [40] was 20.4 µM (inactive). The GI50 [41] was 17.3 µM (inactive), the GI50 [42] was 37 µM (inactive) and the GI50 [43] was 33.3 µM (inactive). The GI50 [44] was 15.3 µM (inactive), the GI50 [45] was 21.8 µM (inactive) and the GI50 [46] was 18.5 µM (inactive). The GI50 [47] was 21.3 µM (inactive), the GI50 [48] was 22.5 µM (inactive) and the GI50 [49] was 24.8 µM (inactive). For the same compound, the GI50 [50] was 16.8 µM (inactive), the GI50 [51] was 23.2 µM (inactive) and the GI50 [52] was 37.9 µM (inactive). For the same compound, the GI50 [53] was 16.3 µM (inactive), the GI50 [54] was 40.8 µM (inactive) and the GI50 [55] was 25.5 µM.

With CC1=NNC(=O)C1C1(C(=O)O)CC(c2c[nH]c3ccccc23)=NC(=S)N1 (centres undefined) the GI50 [1] was 26.3 µM (inactive), the GI50 [2] was 16.6 µM (inactive) and the GI50 [3] was 15.2 µM (inactive). For the same compound, the GI50 [4] was 19.4 µM (inactive), the GI50 [5] was 27.6 µM (inactive) and the GI50 [6] was 27.5 µM (inactive). The GI50 [8] was 22.1 µM (inactive), the GI50 [9] was 32.8 µM (inactive) and the GI50 [10] was 39.4 µM (inactive). For the same compound, the GI50 [11] was 33.5 µM (inactive), the GI50 [12] was 35.6 µM (inactive) and the GI50 [14] was 18.4 µM (inactive). For the same compound, the GI50 [15] was 43.5 µM (inactive), the GI50 [16] was 38.5 µM (inactive) and the GI50 [56] was 19 µM (inactive). The GI50 [18] was 25.4 µM (inactive), the GI50 [19] was 22.3 µM (inactive) and the GI50 [20] was 24.9 µM (inactive). The GI50 [21] was 28.3 µM (inactive), the GI50 [22] was 10.1 µM (inactive) and the GI50 [23] was 19.4 µM (inactive). The GI50 [24] was 37.7 µM (inactive), the GI50 [25] was 29.8 µM (inactive) and the GI50 [26] was 96.4 µM (inactive). The GI50 [27] was 16.9 µM (inactive), the GI50 [28] was 29 µM (inactive) and the GI50 [29] was 18.5 µM (inactive). The GI50 [57] was 46.8 µM (inactive), the GI50 [30] was 20 µM (inactive) and the GI50 [31] was 32.1 µM (inactive). For the same compound, the GI50 [32] was 24.5 µM (inactive), the GI50 [33] was 26 µM (inactive) and the GI50 [34] was 14.4 µM (inactive). For the same compound, the GI50 [35] was > 100 µM (inactive), the GI50 [36] was 40 µM (inactive) and the GI50 [37] was 20 µM (inactive). The GI50 [38] was 27.2 µM (inactive), the GI50 [39] was 41.2 µM (inactive) and the GI50 [40] was 32.1 µM (inactive). For the same compound, the GI50 [41] was 94.8 µM (inactive), the GI50 [42] was 29.3 µM (inactive) and the GI50 [43] was 47.1 µM (inactive). For the same compound, the GI50 [44] was 22.8 µM (inactive), the GI50 [58] was 38.3 µM (inactive) and the GI50 [45] was 24.3 µM (inactive). The GI50 [46] was 37.3 µM (inactive), the GI50 [47] was 17.5 µM (inactive) and the GI50 [48] was 20 µM (inactive). For the same compound, the GI50 [49] was 28.1 µM (inactive), the GI50 [50] was 15.2 µM (inactive) and the GI50 [51] was 17.1 µM (inactive). The GI50 [52] was > 100 µM (inactive), the GI50 [53] was 35.5 µM (inactive) and the GI50 [54] was 0.224 µM (active). It also gave a GI50 [55] of 42.6 µM.
